Experimental data published in patent publication US6737383B1, “Herbicidal oxadiazolidines” (priority 1999, dated 2004).

Legend:
[1] = system: duck salad; assay: Test B flood test duck salad; format: in vivo, Heteranthera limosa
Method in brief: (§1)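 Plants were grown to the 2-leaf stage before treatment with test chemical, then held in a greenhouse for twelve to sixteen days. Injury was visually rated against untreated controls on a 0–10 scale, where 0 is no effect and 10 is complete control.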

[2] = system: cocklebur; assay: Test B pre/postemergence cocklebur; format: in vivo, Xanthium strumarium
Method in brief: (§2)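 Test chemicals in a non-phytotoxic solvent mixture with surfactant were sprayed preemergence onto planted seeds and postemergence onto plants 2 to 18 cm tall (1- to 4-leaf stage). After twelve to sixteen days in a greenhouse, injury was visually rated against untreated controls from 0 (no effect) to 10 (complete control).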

[3] = system: pigweed; assay: Test B pre/postemergence pigweed; format: in vivo, Amaranthus retroflexus
Method in brief: as §2

[4] = system: rape; assay: Test B pre/postemergence rape; format: in vivo, Brassica napus
Method in brief: as §2

[5] = system: velvetleaf; assay: Test B pre/postemergence velvetleaf; format: in vivo, Abutilon theophrasti
Method in brief: as §2

[6] = system: crabgrass; assay: Test B pre/postemergence crabgrass; format: in vivo, Digitaria sanguinalis
Method in brief: as §2

[7] = system: wild oat; assay: Test B pre/postemergence wild oat; format: in vivo, Avena fatua
Method in brief: as §2

[8] = system: purple nutsedge; assay: Test B pre/postemergence purple nutsedge; format: in vivo, Cyperus rotundus
Method in brief: as §2

[9] = system: soybean; assay: Test B pre/postemergence soybean; format: in vivo, Glycine max
Method in brief: as §2

[10] = system: surinam grass; assay: Test B pre/postemergence surinam grass; format: in vivo, Brachiaria decumbens
Method in brief: as §2

[11] = system: bedstraw; assay: Test B pre/postemergence bedstraw; format: in vivo, Galium aparine; conditions: Postemergence
Method in brief: as §2

[12] = system: morningglory; assay: Test B pre/postemergence morningglory; format: in vivo, Ipomoea hederacea
Method in brief: as §2

[13] = system: smallflower flatsedge; assay: Test B flood test smallflower flatsedge; format: in vivo, Cyperus difformis
Method in brief: as §1

[14] = system: giant foxtail; assay: Test B pre/postemergence giant foxtail; format: in vivo, Setaria faberii
Method in brief: as §2

[15] = system: blackgrass; assay: Test B pre/postemergence blackgrass; format: in vivo, Alopecurus myosuroides
Method in brief: as §2

[16] = system: bamyardgrass; assay: Test B flood test barnyardgrass; format: in vivo, Echinochloa crus-galli
Method in brief: as §1

[17] = system: sugar beet; assay: Test B pre/postemergence sugar beet; format: in vivo, Beta vulgaris
Method in brief: as §2

[18] = system: wheat; assay: Test B pre/postemergence wheat; format: in vivo, Triticum aestivum
Method in brief: as §2

[19] = system: corn; assay: Test B pre/postemergence corn; format: in vivo, Zea mays
Method in brief: as §2

[20] = system: rice; assay: Test B flood test rice; format: in vivo, Oryza sativa
Method in brief: as §1

[21] = Rate 62 g/ha, flood test species, Pre-emergence, visual evaluation after twelve to sixteen days
[22] = Rate 125 g/ha, under heading Pre-emergence, flood test species, visual evaluation after twelve to sixteen days
[23] = Rate 250 g/ha, Pre-emergence (flood test species), scale 0 to 10, 0 is no effect, 10 is complete control
[24] = Rate 500 g/ha, Pre-emergence section of Table B, 0 to 10 scale (0 no effect, 10 complete control)
[25] = Postemergence, Rate 62 g/ha, scale 0 to 10, 0 is no effect, 10 is complete control
[26] = Postemergence, Rate 125 g/ha, scale of 0 to 10 where 0 is no effect and 10 is complete control
[27] = Postemergence, Rate 250 g/ha, scale of 0 to 10, 0 is no effect, 10 is complete control
[28] = Postemergence, Rate 500 g/ha, scale of 0 to 10 where 0 is no effect and 10 is complete control
[29] = Preemergence, Rate 62 g/ha, scale 0 to 10 (0 no effect, 10 complete control)
[30] = Preemergence, Rate 125 g/ha, scale of 0 to 10 where 0 is no effect and 10 is complete control
[31] = Preemergence, Rate 500 g/ha, scale of 0 to 10 where 0 is no effect and 10 is complete control

CCC(C)n1c(=O)on(C(=O)N(c2ccc(F)cc2)C(C)C)c1=O (centres unmarked) [Compound 613]
Plant response rating, Ducksalad (0 to 10 scale, 0 is no effect, 10 is complete control) [1, 21]: 0
Ducksalad plant response rating (0 to 10 scale, 0 is no effect, 10 is complete control) [1, 22]: 0
Ducksalad plant response rating [1, 23]: 0
Ducksalad plant response rating [1, 24]: 0
Plant response rating, Cocklebur [2, 25]: 0
Plant response rating, Cocklebur [2, 26]: 2
Cocklebur plant response rating [2, 27]: 2
Plant response rating, Cocklebur [2, 28]: 2
Cocklebur plant response rating [2, 29]: 0
Cocklebur plant response rating [2, 30]: 0
Cocklebur plant response rating (0 to 10 scale) ([2]; Preemergence, Rate 250 g/ha): 2
Plant response rating, Cocklebur [2, 31]: 8
Plant response rating, Redroot pigweed [3, 25]: 1
Plant response rating, Redroot pigweed [3, 26]: 2
Redroot pigweed plant response rating [3, 27]: 7
Plant response rating, Redroot pigweed [3, 28]: 8
Redroot pigweed plant response rating [3, 29]: 10
Redroot pigweed plant response rating [3, 30]: 10
Plant response rating, Redroot pigweed [3, 31]: 10
Plant response rating, Rape [4, 25]: 0
Plant response rating, Rape [4, 26]: 0
Rape plant response rating [4, 27]: 3
Plant response rating, Rape [4, 28]: 7
Rape plant response rating [4, 29]: 7
Rape plant response rating [4, 30]: 9
Plant response rating, Rape [4, 31]: 10
Plant response rating, Velvetleaf [5, 25]: 0
Plant response rating, Velvetleaf [5, 26]: 4
Velvetleaf plant response rating [5, 27]: 5
Plant response rating, Velvetleaf [5, 28]: 8
Velvetleaf plant response rating [5, 29]: 7
Velvetleaf plant response rating [5, 30]: 7
Plant response rating, Velvetleaf [5, 31]: 8
Plant response rating, Crabgrass [6, 25]: 8
Plant response rating, Crabgrass [6, 26]: 9
Crabgrass plant response rating [6, 27]: 9
Plant response rating, Crabgrass [6, 28]: 9
Crabgrass plant response rating [6, 29]: 9
Crabgrass plant response rating [6, 30]: 10
Plant response rating, Crabgrass [6, 31]: 10
Plant response rating, Wild oats [7, 25]: 1
Plant response rating, Wild oats [7, 26]: 7
Wild oats plant response rating [7, 27]: 9
Plant response rating, Wild oats [7, 28]: 9
Wild oats plant response rating [7, 29]: 7
Wild oats plant response rating [7, 30]: 9
Plant response rating, Wild oats [7, 31]: 10
Plant response rating, Nutsedge [8, 25]: 0
Plant response rating, Nutsedge [8, 26]: 2
Nutsedge plant response rating [8, 27]: 2
Plant response rating, Nutsedge [8, 28]: 4
Nutsedge plant response rating [8, 29]: 0
Nutsedge plant response rating [8, 30]: 0
Plant response rating, Nutsedge [8, 31]: 2
Plant response rating, Soybean [9, 25]: 4
Plant response rating, Soybean [9, 26]: 5
Soybean plant response rating [9, 27]: 6
Plant response rating, Soybean [9, 28]: 8
Soybean plant response rating [9, 29]: 0
Soybean plant response rating [9, 30]: 0
Plant response rating, Soybean [9, 31]: 2
Plant response rating, B. signalgrass [10, 25]: 1
Plant response rating, B. signalgrass [10, 26]: 3
B. signalgrass plant response rating [10, 27]: 6
Plant response rating, B. signalgrass [10, 28]: 8
B. signalgrass plant response rating [10, 29]: 7
B. signalgrass plant response rating [10, 30]: 8
B. signalgrass plant response rating (0 to 10 scale, 0 is no effect, 10 is complete control) ([10]; Preemergence, Rate 250 g/ha): 9
B. signalgrass plant response rating [10, 31]: 9
Plant response rating, Bedstraw ([11]; Rate 62 g/ha, scale 0 to 10, 0 is no effect, 10 is complete control): 8
Bedstraw plant response rating ([11]; Rate 250 g/ha, scale of 0 to 10, 0 is no effect, 10 is complete control): 8
Plant response rating, Bedstraw ([11]; Rate 500 g/ha, scale of 0 to 10 where 0 is no effect and 10 is complete control): 9
Plant response rating, Morningglory [12, 25]: 7
Plant response rating, Morningglory [12, 26]: 7
Morningglory plant response rating [12, 27]: 8
Plant response rating, Morningglory [12, 28]: 8
Morningglory plant response rating [12, 29]: 0
Morningglory plant response rating [12, 30]: 0
Plant response rating, Morningglory [12, 31]: 10
Plant response rating, S. Flatsedge (0 to 10 scale, 0 is no effect, 10 is complete control) [13, 21]: 0
S. Flatsedge plant response rating (0 to 10 scale, 0 is no effect, 10 is complete control) [13, 22]: 0
S. Flatsedge plant response rating [13, 23]: 0
S. Flatsedge plant response rating [13, 24]: 0
Plant response rating, Giant foxtail [14, 25]: 5
Plant response rating, Giant foxtail [14, 26]: 9
Giant foxtail plant response rating [14, 27]: 9
Plant response rating, Giant foxtail [14, 28]: 9
Giant foxtail plant response rating [14, 29]: 10
Giant foxtail plant response rating [14, 30]: 10
Plant response rating, Giant foxtail [14, 31]: 10
Plant response rating, Blackgrass [15, 25]: 8
Plant response rating, Blackgrass [15, 26]: 9
Blackgrass plant response rating [15, 27]: 9
Plant response rating, Blackgrass [15, 28]: 9
Blackgrass plant response rating [15, 29]: 8
Blackgrass plant response rating [15, 30]: 8
Blackgrass plant response rating (0 to 10 scale) ([15]; Preemergence, Rate 250 g/ha): 10
Blackgrass plant response rating [15, 31]: 10
Plant response rating, Barnyardgrass (0 to 10 scale, 0 is no effect, 10 is complete control) [16, 21]: 0
Barnyardgrass plant response rating (0 to 10 scale, 0 is no effect, 10 is complete control) [16, 22]: 0
Barnyardgrass plant response rating [16, 23]: 0
Barnyardgrass plant response rating [16, 24]: 0
Plant response rating, Sugarbeets [17, 25]: 0
Plant response rating, Sugarbeets [17, 26]: 0
Sugarbeets plant response rating [17, 27]: 0
Plant response rating, Sugarbeets [17, 28]: 0
Sugarbeets plant response rating [17, 29]: 3
Sugarbeets plant response rating [17, 30]: 5
Plant response rating, Sugarbeets [17, 31]: 10
Plant response rating, Wheat [18, 25]: 0
Plant response rating, Wheat [18, 26]: 0
Wheat plant response rating [18, 27]: 2
Plant response rating, Wheat [18, 28]: 6
Wheat plant response rating [18, 29]: 0
Wheat plant response rating [18, 30]: 3
Plant response rating, Wheat [18, 31]: 6
Plant response rating, Corn [19, 25]: 0
Plant response rating, Corn [19, 26]: 0
Corn plant response rating [19, 27]: 0
Plant response rating, Corn [19, 28]: 0
Corn plant response rating [19, 29]: 2
Corn plant response rating [19, 30]: 3
Corn plant response rating (0 to 10 scale) ([19]; Preemergence, Rate 250 g/ha): 9
Plant response rating, Corn [19, 31]: 9
Plant response rating, Rice (0 to 10 scale, 0 is no effect, 10 is complete control) [20, 21]: 0
Rice plant response rating (0 to 10 scale, 0 is no effect, 10 is complete control) [20, 22]: 0
Rice plant response rating [20, 23]: 0
Rice plant response rating [20, 24]: 0
